Test results from PubChem BioAssay (NCI).
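96-well plates; 48 h exposure; 5 concentrations. Endpoints by linear interpolation between flanking doses. Not reached: highest tested concentration assigned. GI50 is the concentration that inhibits growth by half. TGI marks complete inhibition of growth.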

Experiments:
Test in all cases: growth of human tumour cells (NCI), 48 h
786-0 renal = tested on: 786-0 renal
A498 renal = tested on: A498 renal
A549 NSCLC = tested on: A549 NSCLC
ACHN renal = tested on: ACHN renal
BT-549 breast = tested on: BT-549 breast
CAKI-1 renal = tested on: CAKI-1 renal
CCRF-CEM leukemia = tested on: CCRF-CEM leukemia
DU-145 prostate = tested on: DU-145 prostate
EKVX NSCLC = tested on: EKVX NSCLC
HCT-116 colon = tested on: HCT-116 colon
HL-60(TB) leukemia = tested on: HL-60(TB) leukemia
HOP-62 NSCLC = tested on: HOP-62 NSCLC
HOP-92 NSCLC = tested on: HOP-92 NSCLC
HS 578T breast = tested on: HS 578T breast
IGROV1 ovarian = tested on: IGROV1 ovarian
K-562 leukemia = tested on: K-562 leukemia
KM12 colon = tested on: KM12 colon
MCF7 breast = tested on: MCF7 breast
MDA-MB-435 = tested on: MDA-MB-435
NCI-H226 lung = tested on: NCI-H226 lung
NCI-H23 lung = tested on: NCI-H23 lung
NCI-H460 lung = tested on: NCI-H460 lung
NCI-H522 lung = tested on: NCI-H522 lung
OVCAR-8 ovarian = tested on: OVCAR-8 ovarian
RPMI-8226 leukemia = tested on: RPMI-8226 leukemia
RXF 393 renal = tested on: RXF 393 renal
SF-268 CNS = tested on: SF-268 CNS
SF-539 CNS = tested on: SF-539 CNS
SK-OV-3 ovarian = tested on: SK-OV-3 ovarian
SNB-19 CNS = tested on: SNB-19 CNS
SNB-75 CNS = tested on: SNB-75 CNS
T-47D breast = tested on: T-47D breast
TK-10 renal = tested on: TK-10 renal
U251 CNS = tested on: U251 CNS
UACC-257 melanoma = tested on: UACC-257 melanoma
UACC-62 melanoma = tested on: UACC-62 melanoma
UO-31 renal = tested on: UO-31 renal
COLO 205 colon = tested on: COLO 205 colon
LOX IMVI melanoma = tested on: LOX IMVI melanoma
MALME-3M melanoma = tested on: MALME-3M melanoma
MDA-MB-231 breast = tested on: MDA-MB-231 breast
OVCAR-4 ovarian = tested on: OVCAR-4 ovarian
OVCAR-5 ovarian = tested on: OVCAR-5 ovarian
PC-3 prostate = tested on: PC-3 prostate
SF-295 CNS = tested on: SF-295 CNS
SK-MEL-2 melanoma = tested on: SK-MEL-2 melanoma
SK-MEL-5 melanoma = tested on: SK-MEL-5 melanoma
SN12C renal = tested on: SN12C renal
SR leukemia = tested on: SR leukemia

## C#C[C@]1(O)CC[C@H]2[C@@H]3CC=C4c5sc(Nc6nc(C)cc(OC)n6)nc5CC[C@]4(C)[C@H]3CC[C@@]21C
786-0 renal
  GI50: 379 nM
  TGI: 2280 nM
A498 renal
  GI50: 1510 nM
  TGI: 5930 nM
A549 NSCLC
  GI50: 2970 nM
  TGI: > 100000 nM
ACHN renal
  GI50: 1190 nM
  TGI: > 100000 nM
BT-549 breast
  GI50: 4500 nM
  TGI: 79900 nM
CAKI-1 renal
  GI50: 1550 nM
  TGI: > 100000 nM
CCRF-CEM leukemia
  GI50: 1210 nM
  TGI: > 100000 nM
DU-145 prostate
  GI50: 3250 nM
  TGI: > 100000 nM
EKVX NSCLC
  GI50: 2390 nM
  TGI: > 100000 nM
HCT-116 colon
  GI50: 1240 nM
  TGI: > 100000 nM
HL-60(TB) leukemia
  GI50: 531 nM
  TGI: 5380 nM
HOP-62 NSCLC
  GI50: 2010 nM
  TGI: 35200 nM
HOP-92 NSCLC
  GI50: 2650 nM
  TGI: 7690 nM
HS 578T breast
  GI50: 323 nM
  TGI: 2190 nM
IGROV1 ovarian
  GI50: 3440 nM
  TGI: > 100000 nM
K-562 leukemia
  GI50: 528 nM
  TGI: > 100000 nM
KM12 colon
  GI50: 3160 nM
  TGI: > 100000 nM
MCF7 breast
  GI50: 1410 nM
  TGI: > 100000 nM
MDA-MB-435
  GI50: 2350 nM
  TGI: > 100000 nM
NCI-H226 lung
  GI50: > 100000 nM
  TGI: > 100000 nM
NCI-H23 lung
  GI50: 3930 nM
  TGI: > 100000 nM
NCI-H460 lung
  GI50: 1820 nM
  TGI: > 100000 nM
NCI-H522 lung
  GI50: 3020 nM
  TGI: > 100000 nM
OVCAR-8 ovarian
  GI50: 4160 nM
  TGI: > 100000 nM
RPMI-8226 leukemia
  GI50: 239 nM
  TGI: 899 nM
RXF 393 renal
  GI50: 161 nM
  TGI: 497 nM
SF-268 CNS
  GI50: 5470 nM
  TGI: > 100000 nM
SF-539 CNS
  GI50: 264 nM
  TGI: 1430 nM
SK-OV-3 ovarian
  GI50: 1550 nM
  TGI: 9130 nM
SNB-19 CNS
  GI50: 986 nM
  TGI: > 100000 nM
SNB-75 CNS
  GI50: 864 nM
  TGI: 84800 nM
T-47D breast
  GI50: 2570 nM
  TGI: > 100000 nM
TK-10 renal
  GI50: 14900 nM
  TGI: > 100000 nM
U251 CNS
  GI50: 575 nM
  TGI: 73100 nM
UACC-257 melanoma
  GI50: 1740 nM
  TGI: 4820 nM
UACC-62 melanoma
  GI50: 540 nM
  TGI: 2730 nM
UO-31 renal
  GI50: 575 nM
  TGI: 3180 nM

## O=C(Nc1ccc(Br)cc1)Nc1nc2ccc([N+](=O)[O-])cc2s1
A498 renal
  GI50: 192 nM
  TGI: 785 nM
A549 NSCLC
  GI50: 1860 nM
  TGI: 6900 nM
BT-549 breast
  GI50: 1520 nM
  TGI: 3270 nM
CCRF-CEM leukemia
  GI50: 377 nM
  TGI: 2740 nM
COLO 205 colon
  GI50: 1640 nM
  TGI: 3150 nM
DU-145 prostate
  GI50: 1730 nM
  TGI: 4680 nM
HCT-116 colon
  GI50: 875 nM
  TGI: 2370 nM
HL-60(TB) leukemia
  GI50: 1020 nM
  TGI: 2750 nM
HOP-62 NSCLC
  GI50: 1880 nM
  TGI: 5040 nM
HS 578T breast
  GI50: 1470 nM
  TGI: 3990 nM
LOX IMVI melanoma
  GI50: 1340 nM
  TGI: 2670 nM
MALME-3M melanoma
  GI50: 792 nM
  TGI: 3490 nM
MDA-MB-231 breast
  GI50: 1470 nM
  TGI: 3500 nM
NCI-H226 lung
  GI50: 1440 nM
  TGI: 3090 nM
NCI-H23 lung
  GI50: 926 nM
  TGI: 2500 nM
NCI-H460 lung
  GI50: 1280 nM
  TGI: 3080 nM
OVCAR-4 ovarian
  GI50: 1130 nM
  TGI: 3820 nM
OVCAR-5 ovarian
  GI50: 2080 nM
  TGI: 5070 nM
PC-3 prostate
  GI50: 542 nM
  TGI: 2080 nM
RPMI-8226 leukemia
  GI50: 425 nM
  TGI: 1700 nM
RXF 393 renal
  GI50: 862 nM
  TGI: 2410 nM
SF-268 CNS
  GI50: 1690 nM
  TGI: 5440 nM
SF-295 CNS
  GI50: 1270 nM
  TGI: 2950 nM
SF-539 CNS
  GI50: 1310 nM
  TGI: 3080 nM
SK-MEL-2 melanoma
  GI50: 1260 nM
  TGI: 3000 nM
SK-MEL-5 melanoma
  GI50: 696 nM
  TGI: 2030 nM
SK-OV-3 ovarian
  GI50: 1590 nM
  TGI: 6750 nM
SN12C renal
  GI50: 1530 nM
  TGI: 4650 nM
SNB-19 CNS
  GI50: 1180 nM
  TGI: 4070 nM
SNB-75 CNS
  GI50: 1070 nM
  TGI: 3000 nM
SR leukemia
  GI50: 474 nM
  TGI: 2280 nM
T-47D breast
  GI50: 573 nM
  TGI: 3380 nM
TK-10 renal
  GI50: 1890 nM
  TGI: 4750 nM
U251 CNS
  GI50: 1200 nM
  TGI: 4260 nM
UACC-257 melanoma
  GI50: 1430 nM
  TGI: 4110 nM
UACC-62 melanoma
  GI50: 1070 nM
  TGI: 3600 nM
UO-31 renal
  GI50: 1490 nM
  TGI: 4740 nM
